Laboratory results from ChEMBL document CHEMBL4732126, “Design, synthesis, and biodistribution studies of new analogues of marine alkaloids: Potent in vitro and in vivo fungicidal agents against Candida spp” (Eur J Med Chem, 2021).
Values after ≈ are worked out from the molar mass of the structure shown.

Assays:
Type in all cases: functional
Candida albicans [1] = assay: Antifungal activity against Candida albicans ATCC 10231 assessed as reduction in fungal growth incubated for 48 hrs by broth microdilution method
Candida albicans [2] = assay: Antifungal activity against Candida albicans ATCC 18804 assessed as reduction in fungal growth incubated for 48 hrs by broth microdilution method
Nakaseomyces glabratus [3] = assay: Antifungal activity against Candida glabrata ATCC 2001 assessed as reduction in fungal growth incubated for 48 hrs by broth microdilution method
Pichia kudriavzevii [4] = assay: Antifungal activity against Candida krusei ATCC 34135 assessed as reduction in fungal growth incubated for 48 hrs by broth microdilution method
Candida tropicalis [5] = assay: Antifungal activity against Candida tropicalis ATCC 28707 assessed as reduction in fungal growth incubated for 48 hrs by broth microdilution method
Candida albicans [6] = assay: Antifungal activity against Candida albicans isolate 6 assessed as reduction in fungal growth incubated for 48 hrs by broth microdilution method
Candida albicans [7] = assay: Antifungal activity against Candida albicans isolate 7 assessed as reduction in fungal growth incubated for 48 hrs by broth microdilution method
Candida albicans [8] = assay: Antifungal activity against Candida albicans isolate 8 assessed as reduction in fungal growth incubated for 48 hrs by broth microdilution method
Candida albicans [9] = assay: Antifungal activity against Candida albicans isolate 9 assessed as reduction in fungal growth incubated for 48 hrs by broth microdilution method
Candida albicans [10] = assay: Antifungal activity against Candida albicans isolate 10 assessed as reduction in fungal growth incubated for 48 hrs by broth microdilution method
Candida albicans [11] = assay: Antifungal activity against Candida albicans isolate 11 assessed as reduction in fungal growth incubated for 48 hrs by broth microdilution method
Candida albicans [12] = assay: Antifungal activity against Candida albicans isolate 12 assessed as reduction in fungal growth incubated for 48 hrs by broth microdilution method
Candida albicans [13] = assay: Antifungal activity against Candida albicans isolate 13 assessed as reduction in fungal growth incubated for 48 hrs by broth microdilution method
Candida albicans [14] = assay: Fungicidal activity against Candida albicans ATCC 18804 assessed as fungal killing incubated for 48 hrs followed by plating on SD agar plate; conditions: read-out: MFC99.9
Candida albicans [15] = assay: Fungicidal activity against Candida albicans ATCC 10231 assessed as fungal killing incubated for 48 hrs followed by plating on SD agar plate; conditions: read-out: MFC99.9
Nakaseomyces glabratus [16] = assay: Fungicidal activity against Candida glabrata ATCC 2001 assessed as fungal killing incubated for 48 hrs followed by plating on SD agar plate; conditions: read-out: MFC99.9
Pichia kudriavzevii [17] = assay: Fungicidal activity against Candida krusei ATCC 34135 assessed as fungal killing incubated for 48 hrs followed by plating on SD agar plate; conditions: read-out: MFC99.9
Candida tropicalis [18] = assay: Fungicidal activity against Candida tropicalis ATCC 28707 assessed as fungal killing incubated for 48 hrs followed by plating on SD agar plate; conditions: read-out: MFC99.9
Candida albicans [19] = assay: Fungicidal activity against Candida albicans isolate 6 assessed as fungal killing incubated for 48 hrs followed by plating on SD agar plate; conditions: read-out: MFC99.9
Candida albicans [20] = assay: Fungicidal activity against Candida albicans isolate 7 assessed as fungal killing incubated for 48 hrs followed by plating on SD agar plate; conditions: read-out: MFC99.9
Candida albicans [21] = assay: Fungicidal activity against Candida albicans isolate 9 assessed as fungal killing incubated for 48 hrs followed by plating on SD agar plate; conditions: read-out: MFC99.9
Candida albicans [22] = assay: Fungicidal activity against Candida albicans isolate 10 assessed as fungal killing incubated for 48 hrs followed by plating on SD agar plate; conditions: read-out: MFC99.9
Candida albicans [23] = assay: Fungicidal activity against Candida albicans isolate 11 assessed as fungal killing incubated for 48 hrs followed by plating on SD agar plate; conditions: read-out: MFC99.9
Candida albicans [24] = assay: Fungicidal activity against Candida albicans isolate 12 assessed as fungal killing incubated for 48 hrs followed by plating on SD agar plate; conditions: read-out: MFC99.9
Candida albicans [25] = assay: Fungicidal activity against Candida albicans isolate 13 assessed as fungal killing incubated for 48 hrs followed by plating on SD agar plate; conditions: read-out: MFC99.9

COC(=O)CCNCCCCCCCCCCCCOCCCc1cccnc1
MIC (Candida albicans [1]): 250 µg/mL (≈ 615 µM) | MIC (Candida albicans [2]): 250 µg/mL (≈ 615 µM) | MIC (Nakaseomyces glabratus [3]): 160 µg/mL (≈ 393 µM) | MIC (Pichia kudriavzevii [4]): 250 µg/mL (≈ 615 µM) | MIC (Candida tropicalis [5]): 160 µg/mL (≈ 393 µM) | MIC (Candida albicans [6]): 250 µg/mL (≈ 615 µM) | MIC (Candida albicans [7]): 250 µg/mL (≈ 615 µM) | MIC (Candida albicans [8]): > 500 µg/mL | MIC (Candida albicans [9]): 250 µg/mL (≈ 615 µM) | MIC (Candida albicans [10]): 250 µg/mL (≈ 615 µM) | MIC (Candida albicans [11]): 250 µg/mL (≈ 615 µM) | MIC (Candida albicans [12]): 250 µg/mL (≈ 615 µM) | MIC (Candida albicans [13]): 160 µg/mL (≈ 393 µM) | MFC (Candida albicans [14]): 250 µg/mL (≈ 615 µM) | MFC (Candida albicans [15]): 250 µg/mL (≈ 615 µM) | MFC (Nakaseomyces glabratus [16]): 160 µg/mL (≈ 393 µM) | MFC (Pichia kudriavzevii [17]): 250 µg/mL (≈ 615 µM) | MFC (Candida tropicalis [18]): 160 µg/mL (≈ 393 µM) | MFC (Candida albicans [19]): > 500 µg/mL | MFC (Candida albicans [20]): 250 µg/mL (≈ 615 µM) | MFC (Candida albicans [21]): 250 µg/mL (≈ 615 µM) | MFC (Candida albicans [22]): 250 µg/mL (≈ 615 µM) | MFC (Candida albicans [23]): 250 µg/mL (≈ 615 µM) | MFC (Candida albicans [24]): > 500 µg/mL | MFC (Candida albicans [25]): 160 µg/mL (≈ 393 µM)
